Measured values taken from ChEMBL document CHEMBL3507680, “University of Dundee, Gates Library screen for HepG2 cell viability”.

Assay: Human HepG2 cell viability assay in 384 well format
Type: toxicity, cell-based
Parameters: dose 125 nL, time 70.5 hour; concentration not given beside the values
Conditions: HepG2 cells, read-out: Inhibition

SMILES	cytotoxicity at 70.5 h [%]
CCC(C)NC(=O)c1ccc(CNC(=O)CC(C)(C)C)cc1 (configuration not stated)	-9.82
CNC(=O)CN1CCOCC2(CCCN(CCc3ccccc3)C2)C1 (configuration not stated)	-10.9
Cc1ccc(C(F)(F)F)cc1NC(=O)C1CCCN1 (configuration not stated)	-8.7
COc1ccc(CN2CC[C@H]3O[C@@H](C(=O)NCC4CC4)CC[C@H]32)cc1	-8.24
O=C(O)[C@]12CCCN(Cc3ccncc3)C[C@H]1CN(c1ncccn1)C2	2.52
Cc1nnc2n1CCN(C(=O)C1CCN(Cc3ccccc3)CC1)C2	14.2
COC(=O)c1ccc(S(=O)(=O)N2CCC(Oc3cccnn3)CC2)cc1	-8.01
CC1CCN(CCCNS(=O)(=O)c2cccc(F)c2)CC1	-13.7
CCC(Nc1ccc(Oc2ccc(C#N)cc2OC)cc1)C(N)=O (configuration not stated)	5.26
Cn1cnc(S(=O)(=O)N2CCN(CC3CC3)c3ncccc3C2)c1	-6.52
CC(C)Oc1ccc(C(=O)Cn2cnnc2[S+](C)[O-])cc1 (configuration not stated)	-7.07
Cc1nccn1-c1ccc(C(C)NCc2ncc[nH]2)cc1 (configuration not stated)	12.6
CC(=O)N1CCC(NC(=O)Cc2nc3nc(C)cc(C)n3n2)CC1	-3.83
Cc1csc(N2CCN(C(=O)c3cc(C4CC4)[nH]n3)CC2)n1	-5.91
O=C(N[C@]12CC1CN(C(=O)c1ccco1)C2)c1ccoc1 (some centres not stated)	-7.38
COC[C@@H]1CN(C)C(=O)[C@@H]2CCN(Cc3ccco3)CC[C@H]12	-4.9
COc1ccnc(N2CCN(C(=O)c3cnn(C)c3C3CC3)CC2)n1	-6.28
N[C@@H](Cc1ccccc1)c1nnc(S(=O)(=O)Cc2cccc(Cl)c2)o1	13.5
CN(Cc1cnn(C)c1)C(=O)c1ccc(Cl)c(N2CCNC2=O)c1	-22.2
CC(NCc1cnn(C)c1)c1ccc(OCc2nccn2C)cc1 (configuration not stated)	-2.06
CCn1cc(-c2c(C)c(C3CCOC(C)(C)C3)nc(N)c2C#N)cn1 (configuration not stated)	9.87
Cc1nc2cc(C3CCOCC3)nn2c(NCC2COCCO2)c1C (configuration not stated)	20.9
COC(=O)CCN(C)Cc1cc(Br)cs1	-21.1

SMILES	cytotoxicity at 70.5 h [%]
O=C1CCCCN1CC(=O)N1CCCC(c2ccccc2)C1 (configuration not stated)	-20.6
CCN1CCOCC12CCN(c1cnccn1)CC2	-7.58
Cc1ccnn1CCNC(=O)C1CCN(S(=O)(=O)c2ccc(F)cc2)C1 (configuration not stated)	6.47
Cc1cccc(CN2CCCC3(CCN(c4cccnc4)C3=O)C2)n1 (configuration not stated)	-3.53
Cc1cc(CN(C)C(=O)c2ccc(F)cc2Br)no1	-9.11
COc1ccc(NC(=O)NCc2ccnc(N(C)C)c2)cn1	14.3
CC(NC(=O)NCc1cscn1)c1ccc(N2CCOCC2)cc1 (configuration not stated)	-0.548
NC(=O)CCSc1ccccc1NCc1ccc(Cl)s1	-95
CN(CCN1CCCCCC1)C(=O)c1c(O)cccc1O	-2.54
CC(C)(C)[S+]([O-])CCNC(=O)c1cccc2ncccc12 (configuration not stated)	-8.58
Cc1ccc(N2CCCN(C(=O)CCc3ccsc3)CC2)nn1	-6.07
CC(=O)N1CCCCC[C@@H]2[C@@H]1[C@H](c1cccc(F)c1)CN2CCC(N)=O	-9.36
CC(=O)N1CCO[C@@H]2CN(S(=O)(=O)c3ccccc3F)C[C@@H]2C1	-10.2
Cc1ccc(CN2C[C@H](NC(=O)c3nccn3C)[C@H]3OCCC[C@H]32)o1	18.3
CSc1ncccc1C(=O)NCc1ccc(N(C)C)cc1	40.2
Cc1cccc(CN2C[C@@H](NC(=O)C3CCC3)[C@H]3COC[C@H]32)n1	-5.38
O=C1[C@H]2CN(Cc3ccc(F)cc3)C[C@H]2CN1CCN1CCCC1	12.5
Cc1cc(N2CCCC2c2nnc3n2CCCCC3)nc(C)n1 (configuration not stated)	-3.38
CCCc1nnc(N[C@H](C)c2ccc(OC)cc2)o1	-10.6
Cc1ccc(C2CCCN(S(=O)(=O)N3CCOCC3)C2)nc1 (configuration not stated)	-4.54
CCc1ncc(CN(C)C2CCN(C(C)C)CC2)cn1	13.4
Cc1c[nH]nc1C1CCCCN1C(=O)CC1(O)CCCCC1 (configuration not stated)	-8.79
c1ccc(CO[C@H]2CC[C@H]3[C@H]2OCCN3CCN2CCCCC2)nc1	20.6

SMILES	cytotoxicity at 70.5 h [%]
CC(C)NC(=O)N1CCN(c2ccc(Cl)nn2)C(=O)C1	-4.88
COc1ccc(-c2nc(CN3CCCC3Cn3cccn3)no2)cc1 (configuration not stated)	-0.173
CCN(Cc1ccoc1)C(=O)NC1CCN(CC=C(C)C)CC1	6.72
COc1ncccc1CNC(=O)Nc1ccc(N(C)C)nc1	-12.5
Nc1nnc(CCCn2nnc(-c3ccccc3F)n2)s1	-15.5
COc1ccccc1OCC(=O)NS(=O)(=O)c1ccc(Br)s1	-4.66
CCc1cc(CN(C)C(=O)c2cnn[nH]2)on1	-9.04
c1cncc(-c2cccc(-c3ccn(CCN4CCCCC4)n3)c2)c1	13.9
COc1cc(CN(C)C(=O)NCCC2CCCO2)ccc1SC (configuration not stated)	-3.73
CC(C)n1cc(-c2nc3cc(S(=O)(=O)N4CCCC4)ccc3n2C)cn1	-25.1
O=C(Cc1cccs1)NCc1ccnc(C2CCCOC2)n1 (configuration not stated)	3.29
Cn1ccnc1CNC1CCCN(Cc2noc(C3CC3)n2)C1 (configuration not stated)	-3.59
O=C(O)c1cc(S(=O)(=O)Nc2cc(F)cc(F)c2)cc2c1OCCO2	-4.5
CN1CCN(Cc2ccccc2CNC(=O)c2cc(Cl)ccc2F)CC1	-5.92
Cn1nc2c(cc1=O)CN(Cc1ccc(-n3cccn3)cc1)CC2	-6.38
Cc1ccc(C)c(S(=O)(=O)NCCNc2ccc(-n3cccc3)nn2)c1	-7.55
CC(C)Oc1ncccc1CNC(=O)N1CCC(C(N)=O)C1 (configuration not stated)	-12.5
Cc1noc(C)c1CN1CCN(Cc2ccncc2)c2ncccc2C1	-7.22
CCC(C)Nc1ccc2c(c1)C1(CCOCC1)C(=O)N2c1ccccc1 (configuration not stated)	-7.71
O=C(NC1CCN(C2CC2)CC1)N1CCN(c2cnccn2)CC1	3.56
c1ccc(-c2nc(CN3CCOC(Cn4cncn4)C3)cs2)cc1 (configuration not stated)	-3.05
COc1ccccc1OCc1cc(C(=O)N2CCN(C(C)=O)CC2)n[nH]1	-5.97
O=C(NCCCn1cccn1)c1nnc2ccccc2n1	2.8

SMILES	cytotoxicity at 70.5 h [%]
CSC(C)Cc1c(-c2ccccc2)ncn1CCCNc1cccnc1 (configuration not stated)	-0.408
N#Cc1ccc(OC2CCN(C(=O)COCC3CCCO3)CC2)cc1 (configuration not stated)	-9.76
COCCCN(Cc1cnc(N2CCCC2)nc1)C1CCN(C)CC1	-20.3
Cn1ncc2c1CCCC2NCc1ccc(Br)s1 (configuration not stated)	3.28
O=C(C(CNCc1ccco1)c1ccccc1)N1CCOCC1 (configuration not stated)	-4.97
OC[C@@H](O)CN(CCC(F)(F)F)c1ncc(Br)cn1	14.1
CCCc1nnc2sc(C3CCS(=O)(=O)CC3)nn12	-10.2
Cc1nc(CNC(=O)CC2C(=O)NCCN2Cc2ccccc2C)n[nH]1 (configuration not stated)	-0.629
CC(C)c1nccn1C(C)C(=O)NC1CCN(S(C)(=O)=O)CC1 (configuration not stated)	3.51
CS(=O)(=O)c1ccc(CNC2CCCN(c3cccnn3)C2)cc1 (configuration not stated)	-6.92
Cc1noc(C)c1-c1cccc(C2CCCNC2)n1 (configuration not stated)	2.18
COc1c(NS(=O)(=O)c2ccc(C)c(C)c2)c(C)nn1C	2.79
Cc1ccc2nc(-c3nc4c([nH]3)CC(C)(C)CNC4=O)cn2c1	7.51
c1cnn(C[C@@H]2C[C@@H]3CN(CC4CC4)CC[C@@H]3N2c2nccs2)c1	0.124
CCc1cnc(N)nc1NC(C)c1cnn(C)c1 (configuration not stated)	-5.96
Cc1cc(CN2C[C@H]3CC[C@@H]2CN(Cc2c(C)noc2C)C3)ccc1F	-5.96
CNC(=O)CS(=O)(=O)Cc1cc(Cl)c2c(c1)OCCCO2	25.7
CN1C(=O)CCC12CCCN(C(=O)c1ccoc1)C2 (configuration not stated)	-1.96
Cc1nc(C2CCCN(C(=O)c3c[nH]c(C(C)C)n3)C2)no1 (configuration not stated)	-2.72
Cc1nc(N(C)C)nc(N(C)CCc2ccncc2)c1C	-15.2
Cc1cc2n(n1)CC(CNCc1ccc(-n3ccnc3C)nc1)CN2 (configuration not stated)	-20.7
Cc1ccc(F)c(S(=O)(=O)NCc2cccc(N3CCOC3=O)c2)c1	-4.03
Cc1nn(CC(O)CN2CCc3ccccc3C2)c(=O)c(C#N)c1C (configuration not stated)	-19.9

SMILES	cytotoxicity at 70.5 h [%]
c1cncc(COC2COC3(CCN(c4cnccn4)CC3)C2)c1 (configuration not stated)	15.1
CSCC(=O)N1CCOC(c2nc(C(C)C)n[nH]2)C1 (configuration not stated)	-7.67
CN(C)C(=O)c1ccccc1NC(=O)N(C)Cc1ccccc1O	4.11
CCN(C(=O)c1cc(C)oc1C)C1CC1	-4.05
CN(Cc1ccsc1)C(=O)Nc1ccc(S(C)(=O)=O)cc1	-1.57
Cc1cc(C)nc(C2CCCN2c2ccnc(C)n2)n1 (configuration not stated)	-0.201
Cc1cc(CN(C)CC2CCCN(CCc3ccc(Cl)cc3)C2)[nH]n1 (configuration not stated)	-4.86
COc1ccccc1C1(CNc2cn[nH]c(=O)c2Cl)CC1	-12.7
Cc1nccn1CCC1CCN(c2ccncn2)CC1	-2.98
COC1CN(C(=O)CC2CCCC2)CCC(=O)N(C)c2ccccc21 (configuration not stated)	21.5
CC(C)N(C)[C@@H]1CCN(Cc2nccs2)[C@H]1Cc1ccncc1	-8.84
CO[C@H]1CCN(C(=O)Cc2ccc(F)cc2)[C@H]1Cc1ccncc1	-8.07
O=C(O)c1sccc1Oc1ccc(NC(=O)C2CC2)cc1	-0.448
O=C(CCC1CCN(Cc2ccncc2)CC1)Nc1ccccc1Cl	0.0549
C[C@H]1CN(C(=O)c2cccc(F)c2Cl)CCN1S(C)(=O)=O	-95.8
CCN(Cc1ccccn1)Cc1cc(Cl)ccc1OC	2.41
CNS(=O)(=O)c1cccc(C(C)NCc2ccc(F)cc2F)c1 (configuration not stated)	-9.82
Cc1cc2nc(C(C)C)cc(NC(C)c3nncn3C)n2n1 (configuration not stated)	-17.3
CC(C)N1CC(C(=O)NCc2ccc(S(=O)(=O)N(C)C)cc2)CC1=O (configuration not stated)	-7.28
O=C(CCN1CCCO1)N1CCCC(CO)(CCCc2ccccc2)C1 (configuration not stated)	-8.66
